Data taken from the NIST ThermoML archive (doi:10.1016/j.jct.2013.06.020).

Assay: mn = molality of the nth substance listed, in mol/kg
Conditions: 298.15 K, 101 kPa, Liquid; for speed of sound: Sing-around technique in a fixed-path interferometer; for mass density: Vibrating tube method

O=Cc1ccco1 [2-furaldehyde] + O
Conditions | mass density [kg/m3] | speed of sound [m/s]
m1 = 0.0542 | 998.113 | 1499.1
m1 = 0.0556 | 998.137 | 1499.2
m1 = 0.0607 | 998.217 | 1499.4
m1 = 0.0653 | 998.295 | 1499.6
m1 = 0.0686 | 998.351 | 1499.7
m1 = 0.075 | 998.453 | 1500
m1 = 0.0801 | 998.537 | 1500.2
m1 = 0.089 | 998.69 | 1500.6
m1 = 0.1095 | 999.037 | 1501.4
m1 = 0.1179 | 999.174 | 1501.8
m1 = 0.1332 | 999.425 | 1502.3
m1 = 0.1717 | 1000.07 | 1504
m1 = 0.2053 | 1000.62 | 1505.3
m1 = 0.2309 | 1001.03 | 1506.1
m1 = 0.3092 | 1002.32 | 1508.9
m1 = 0.3436 | 1002.87 | 1510
m1 = 0.4132 | 1003.97 | 1512.3
m1 = 0.5112 | 1005.51 | 1515.2
m1 = 0.5559 | 1006.19 | 1516.5
m1 = 0.6557 | 1007.7 | 1518.7
m1 = 0.8368 | 1010.35 | 1522
m1 = 0.9225 | 1011.55 | 1523.5

OCc1ccco1 [2-hydroxymethylfuran] + O
Conditions | mass density [kg/m3] | speed of sound [m/s]
m1 = 0.0475 | 997.854 | 1498.9
m1 = 0.0537 | 997.937 | 1499.3
m1 = 0.0559 | 997.967 | 1499.4
m1 = 0.0625 | 998.054 | 1499.7
m1 = 0.0688 | 998.143 | 1500
m1 = 0.0781 | 998.269 | 1500.3
m1 = 0.0999 | 998.571 | 1501.3
m1 = 0.1027 | 998.607 | 1501.5
m1 = 0.12 | 998.847 | 1502.2
m1 = 0.1433 | 999.158 | 1503.3
m1 = 0.1651 | 999.552 | 1504.3
m1 = 0.2327 | 1000.39 | 1507.1
m1 = 0.2468 | 1000.58 | 1507.8
m1 = 0.4458 | 1003.25 | 1515.9
m1 = 0.618 | 1005.5 | 1522.3
m1 = 0.8613 | 1008.56 | 1530.4
m1 = 1.054 | 1010.95 | 1535.9
m1 = 1.236 | 1012.93 | 1540.5
m1 = 1.441 | 1015.25 | 1545.5
m1 = 1.656 | 1017.56 | 1550
m1 = 1.835 | 1019.32 | 1554
m1 = 2.062 | 1021.73 | 1559.4
m1 = 2.545 | 1026.13 | 1569.5
m1 = 2.874 | 1028.8 | 1577.2

OCC1CCCO1 (centres undefined) [2-tetrahydrofurylmethanol] + O
Conditions | mass density [kg/m3] | speed of sound [m/s]
m1 = 0.0115 | 997.245 | 1497.2
m1 = 0.0127 | 997.265 | 1497.4
m1 = 0.0141 | 997.289 | 1497.6
m1 = 0.0149 | 997.301 | 1497.7
m1 = 0.0183 | 997.356 | 1498.1
m1 = 0.0193 | 997.373 | 1498.2
m1 = 0.0223 | 997.421 | 1498.4
m1 = 0.0281 | 997.511 | 1498.5
m1 = 0.0286 | 997.518 | 1498.5
m1 = 0.0337 | 997.596 | 1498.7
m1 = 0.0441 | 997.835 | 1499.3
m1 = 0.0462 | 997.862 | 1499.5
m1 = 0.0496 | 997.893 | 1499.6
m1 = 0.0584 | 998.028 | 1500.3
m1 = 0.0686 | 998.155 | 1500.9
m1 = 0.0731 | 998.209 | 1501.1
m1 = 0.0948 | 998.467 | 1502.4
m1 = 0.1082 | 998.66 | 1503.2
m1 = 0.1478 | 999.071 | 1505.6
m1 = 0.2077 | 999.663 | 1509
m1 = 0.2552 | 1000.11 | 1511.8
m1 = 0.35 | 1000.98 | 1517.1
m1 = 0.4904 | 1002.2 | 1524.9
m1 = 0.678 | 1003.77 | 1534.7
m1 = 1.16 | 1007.55 | 1557.2
m1 = 1.996 | 1013.36 | 1589.1
m1 = 2.959 | 1020.27 | 1614.9
m1 = 3.175 | 1021.74 | 1620.8
m1 = 3.559 | 1024.37 | 1630.1
m1 = 5.556 | 1036.45 | 1672.3

Cc1ccc(C=O)o1 [5-methylfurfural] + O
Conditions | mass density [kg/m3] | speed of sound [m/s]
m1 = 0.0067 | 997.297 | 1497
m1 = 0.0069 | 997.3 | 1497
m1 = 0.0081 | 997.319 | 1497.1
m1 = 0.0083 | 997.323 | 1497.2
m1 = 0.0084 | 997.325 | 1497.2
m1 = 0.0098 | 997.344 | 1497.2
m1 = 0.0103 | 997.35 | 1497.2
m1 = 0.0109 | 997.355 | 1497.3
m1 = 0.0122 | 997.373 | 1497.3
m1 = 0.0137 | 997.397 | 1497.4
m1 = 0.016 | 997.425 | 1497.6
m1 = 0.0179 | 997.454 | 1497.7
m1 = 0.0223 | 997.516 | 1497.9
m1 = 0.0257 | 997.563 | 1498.1
m1 = 0.0292 | 997.613 | 1498.3
m1 = 0.0462 | 997.848 | 1499.2
m1 = 0.0557 | 997.966 | 1499.6
m1 = 0.0608 | 998.055 | 1500
m1 = 0.0825 | 998.35 | 1501.1
m1 = 0.1136 | 998.767 | 1503
m1 = 0.1363 | 998.986 | 1503.8
m1 = 0.1454 | 999.221 | 1504.2
m1 = 0.1666 | 999.516 | 1505.2
m1 = 0.204 | 1000.01 | 1506.9
m1 = 0.2877 | 1001.14 | 1511

CCOC(=O)C(C)O (stereo not drawn) [DL-ethyl lactate] + O
Conditions | mass density [kg/m3] | speed of sound [m/s]
m1 = 0.0348 | 997.552 | 1498.7
m1 = 0.0378 | 997.579 | 1499
m1 = 0.0445 | 997.674 | 1499.6
m1 = 0.0513 | 997.748 | 1500
m1 = 0.063 | 997.869 | 1500.5
m1 = 0.0719 | 997.967 | 1501.1
m1 = 0.0895 | 998.152 | 1502.2
m1 = 0.1026 | 998.294 | 1503
m1 = 0.1207 | 998.489 | 1504
m1 = 0.1439 | 998.732 | 1505.6
m1 = 0.1856 | 999.184 | 1508.6
m1 = 0.2723 | 1000.1 | 1514
m1 = 0.5249 | 1002.7 | 1526
m1 = 0.6911 | 1004.35 | 1533.5
m1 = 0.8467 | 1005.83 | 1539.6
m1 = 1.02 | 1007.41 | 1545.3
m1 = 1.188 | 1008.87 | 1551.3
m1 = 1.359 | 1010.23 | 1556.1
m1 = 1.683 | 1012.78 | 1563.9
m1 = 2.058 | 1015.37 | 1572.5
m1 = 2.41 | 1017.49 | 1579
m1 = 2.725 | 1019.27 | 1585.2
m1 = 3.226 | 1021.64 | 1593.3
m1 = 3.731 | 1023.63 | 1601.1
m1 = 4.237 | 1025.37 | 1607.5

CCCCOC(=O)C(C)O (centres undefined) [butyl 2-hydroxypropanoate] + O
Conditions | mass density [kg/m3] | speed of sound [m/s]
m1 = 0.0219 | 997.335 | 1498.8
m1 = 0.0262 | 997.377 | 1499.4
m1 = 0.0328 | 997.422 | 1499.9
m1 = 0.0399 | 997.472 | 1500.3
m1 = 0.0413 | 997.482 | 1500.5
m1 = 0.0444 | 997.503 | 1500.8
m1 = 0.0632 | 997.633 | 1502.3
m1 = 0.0659 | 997.652 | 1502.6
m1 = 0.0775 | 997.733 | 1503.7
m1 = 0.0915 | 997.826 | 1504.9
m1 = 0.1058 | 997.928 | 1506.1
m1 = 0.1167 | 998.001 | 1507
m1 = 0.1331 | 998.116 | 1508.4
m1 = 0.1551 | 998.265 | 1510.2
m1 = 0.1798 | 998.437 | 1512.2
m1 = 0.1979 | 998.576 | 1514
m1 = 0.2171 | 998.689 | 1515.5
m1 = 0.235 | 998.813 | 1516.7
m1 = 0.2647 | 999.004 | 1518.4
m1 = 0.2785 | 999.098 | 1519.4

CCCCOC(=O)CCC(C)=O [butyl levulinate] + O
Conditions | mass density [kg/m3] | speed of sound [m/s]
m1 = 0.0029 | 997.066 | 1497.3
m1 = 0.0037 | 997.071 | 1497.5
m1 = 0.005 | 997.078 | 1497.6
m1 = 0.0055 | 997.08 | 1497.6
m1 = 0.0059 | 997.081 | 1497.7
m1 = 0.0074 | 997.088 | 1497.9
m1 = 0.0083 | 997.093 | 1497.9
m1 = 0.0088 | 997.096 | 1497.9
m1 = 0.011 | 997.107 | 1498.2
m1 = 0.0128 | 997.114 | 1498.4
m1 = 0.0135 | 997.123 | 1498.5
m1 = 0.0142 | 997.124 | 1498.5
m1 = 0.0208 | 997.158 | 1499.1
m1 = 0.0219 | 997.163 | 1499.4
m1 = 0.0257 | 997.183 | 1499.7
m1 = 0.0303 | 997.197 | 1500
m1 = 0.0312 | 997.209 | 1500.1
m1 = 0.0357 | 997.23 | 1500.6
m1 = 0.0466 | 997.273 | 1501.4
m1 = 0.0522 | 997.303 | 1501.8
m1 = 0.0625 | 997.333 | 1502.5
